Reference: patent EP0620225B1, “Cephalosporin derivatives” (Basilea Pharmaceutica AG, priority 1993, dated 1994)
Values after ≈ are worked out from the molar mass of the structure shown.

Columns and labels:
Test in all cases: Antibacterial spectrum (MIC), agar dilution
Assay type in all cases: cell-based
Acinetobacter sp.51-156 = conditions: SP.51156, read-out: MIC
Method: (§1) In vitro activity was determined by minimum inhibitory concentration in a microorganism spectum by the agar dilution method in Mueller Hinton agar.

C.freundii 43 = conditions: Citrobacter freundii, read-out: MIC
Method: as §1

C.freundii 902 = conditions: Citrobacter freundii, read-out: MIC
Method: as §1

E.cloacae 908R = conditions: Enterobacter cloacae, read-out: MIC
Method: as §1

E.cloacae 908SSi = conditions: Enterobacter cloacae, read-out: MIC
Method: as §1

E.coli 25922 = conditions: Escherichia coli, read-out: MIC
Method: as §1

E.faecalis 6 = conditions: Enterococcus faecalis, read-out: MIC
Method: as §1

H.influenzae 1 = conditions: Haemophilus influenzae, read-out: MIC
Method: as §1

K.pneumoniae 418 = conditions: Klebsiella pneumoniae, read-out: MIC
Method: as §1

L.monocytogenes BK23 = conditions: Listeria monocytogenes, read-out: MIC
Method: as §1

M.catarrhalis RA21 = conditions: Moraxella catarrhalis, read-out: MIC
Method: as §1

M.morganii 6H-137 = conditions: Morganella morganii, 6H137, read-out: MIC
Method: as §1

N.meningitidis 69480 = conditions: Neisseria meningitidis, read-out: MIC
Method: as §1

P.aeruginosa 27853 = conditions: Pseudomonas aeruginosa, read-out: MIC
Method: as §1

P.mirabilis 2117 = conditions: Proteus mirabilis, read-out: MIC
Method: as §1

P.vulgaris 1028 = conditions: Proteus vulgaris, read-out: MIC
Method: as §1

S.agalactiae QK44 = conditions: Streptococcus agalactiae, read-out: MIC
Method: as §1

S.aureus 6538 = conditions: Staphylococcus aureus, read-out: MIC
Method: as §1

S.aureus 734 MRSA = conditions: Staphylococcus aureus, read-out: MIC
Method: as §1

S.marcescens 69438 = conditions: Serratia marcescens, read-out: MIC
Method: as §1

S.pneumoniae Q19 = conditions: Streptococcus pneumoniae, read-out: MIC
Method: as §1

S.pyogenes B15 = conditions: Streptococcus pyogenes, read-out: MIC
Method: as §1

S.viridans group 016 = conditions: Streptococcus viridans, read-out: MIC
Method: as §1

X.maltophilia 1AC739 = conditions: Stenotrophomonas maltophilia, read-out: MIC
Method: as §1

SMILES | MIC (Acinetobacter sp.51-156) [µg/mL] | MIC (C.freundii 43) [µg/mL] | MIC (C.freundii 902) [µg/mL] | MIC (E.cloacae 908R) [µg/mL] | MIC (E.cloacae 908SSi) [µg/mL] | MIC (E.coli 25922) [µg/mL] | MIC (E.faecalis 6) [µg/mL] | MIC (H.influenzae 1) [µg/mL] | MIC (K.pneumoniae 418) [µg/mL] | MIC (L.monocytogenes BK23) [µg/mL] | MIC (M.catarrhalis RA21) [µg/mL] | MIC (M.morganii 6H-137) [µg/mL] | MIC (N.meningitidis 69480) [µg/mL] | MIC (P.aeruginosa 27853) [µg/mL] | MIC (P.mirabilis 2117) [µg/mL] | MIC (P.vulgaris 1028) [µg/mL] | MIC (S.agalactiae QK44) [µg/mL] | MIC (S.aureus 6538) [µg/mL] | MIC (S.aureus 734 MRSA) [µg/mL] | MIC (S.marcescens 69438) [µg/mL] | also measured
Nc1nc(/C(=N/O)C(=O)N[C@@H]2C(=O)N3C(C(=O)O)=C(/C=C4\CCN(CC5CC5)C4=O)CS[C@H]23)cs1 [N, [6R-[3(E),6α,7β(Z)]]-7-[[(2-Amino-4-thiazolyl)(hydroxyimino)acetyl]-amino]-3-[[1-cyclopropylmethyl-2-oxo-3-pyrrolidinylidene]methyl]-8-oxo-5-thia-1-azabicyclo[4.2.0]oct-2-ene-2-carboxylic acid] | 16 (≈ 30.9 µM) | 4 (≈ 7.71 µM) | 0.12 (≈ 0.231 µM) | 8 (≈ 15.4 µM) | 1 (≈ 1.93 µM) | ≤ 0.06 | 1 (≈ 1.93 µM) | 0.25 (≈ 0.482 µM) | 0.12 (≈ 0.231 µM) | 4 (≈ 7.71 µM) | 8 (≈ 15.4 µM) | ≤ 0.06 | 0.25 (≈ 0.482 µM) | 16 (≈ 30.9 µM) | ≤ 0.06 | 0.25 (≈ 0.482 µM) | 0.5 (≈ 0.964 µM) | 0.5 (≈ 0.964 µM) | 8 (≈ 15.4 µM) | 0.5 (≈ 0.964 µM) | MIC (S.pneumoniae Q19): ≤ 0.06 µg/mL; MIC (S.pyogenes B15): ≤ 0.06 µg/mL; MIC (S.viridans group 016): 1 µg/mL (≈ 1.93 µM); MIC (X.maltophilia 1AC739): > 32 µg/mL
C#CCN1CC/C(=C\C2=C(C(=O)O)N3C(=O)[C@@H](NC(=O)/C(=N\O)c4csc(N)n4)[C@H]3SC2)C1=O [O, [6R-[3(E),6α,7β(Z)]]-7-[[(2-Amino-4-thiazolyl)(hydroxyimino)acetyl]-amino]-8-oxo-3-[[2-oxo-1-(2-propynyl)-3-pyrrolidinylidene]methyl]-5-thia-1-azabicyclo [4.2.0]-oct-2-ene-2-carboxylic acid] | 16 (≈ 31.8 µM) | 4 (≈ 7.96 µM) | 0.12 (≈ 0.239 µM) | 16 (≈ 31.8 µM) | 1 (≈ 1.99 µM) | ≤ 0.06 | 2 (≈ 3.98 µM) | 0.25 (≈ 0.497 µM) | 0.12 (≈ 0.239 µM) | 2 (≈ 3.98 µM) | 4 (≈ 7.96 µM) | ≤ 0.06 | 0.25 (≈ 0.497 µM) | 8 (≈ 15.9 µM) | ≤ 0.06 | 8 (≈ 15.9 µM) | 0.25 (≈ 0.497 µM) | 1 (≈ 1.99 µM) | 4 (≈ 7.96 µM) | 1 (≈ 1.99 µM) | MIC (S.pneumoniae Q19): ≤ 0.06 µg/mL; MIC (S.pyogenes B15): ≤ 0.06 µg/mL; MIC (S.viridans group 016): 0.5 µg/mL (≈ 0.995 µM); MIC (X.maltophilia 1AC739): > 32 µg/mL
Nc1nc(/C(=N/O)C(=O)N[C@@H]2C(=O)N3C(C(=O)O)=C(/C=C4\CCN(c5cnccn5)C4=O)CS[C@H]23)cs1 [P] | 32 (≈ 59 µM) | 2 (≈ 3.69 µM) | 0.12 (≈ 0.221 µM) | 8 (≈ 14.7 µM) | 0.25 (≈ 0.461 µM) | ≤ 0.06 | 0.5 (≈ 0.922 µM) | 0.5 (≈ 0.922 µM) | 0.25 (≈ 0.461 µM) | 4 (≈ 7.37 µM) | 8 (≈ 14.7 µM) | ≤ 0.06 | 0.5 (≈ 0.922 µM) | 8 (≈ 14.7 µM) | 0.12 (≈ 0.221 µM) | 4 (≈ 7.37 µM) | 0.5 (≈ 0.922 µM) | 0.5 (≈ 0.922 µM) | 8 (≈ 14.7 µM) | 4 (≈ 7.37 µM) | MIC (S.pneumoniae Q19): 0.12 µg/mL (≈ 0.221 µM); MIC (S.pyogenes B15): ≤ 0.06 µg/mL; MIC (S.viridans group 016): 1 µg/mL (≈ 1.84 µM); MIC (X.maltophilia 1AC739): > 32 µg/mL
